Here are results for one compound from patent publication US5626867A, “Liposomes with a negative excess charge” (Max-Planck Gesellschaft zur Forderung der Wissenschaften …, priority 1992, dated 1997).

Data set [1] in a line: in vivo. Details: species or system NMR-I mice. As to conditions: mouse, iv, 5.7 mg/kg. Here is the method:
Each treatment group was composed of 3 animals. […] The plasma samples were analyzed by the procedure of Mross et al., (J. Chromatograph. 530 (1990), 192-199). […] The columns were dried for 10 minutes at 10 mbar. […] The residue was taken up in 50 μl (0.02 mol/l Na phosphate/acetonitrile, pH 3.9; 7:3, v/v) and analyzed by means of HPLC using a 4.6 mm×25 cm Merck Lichrocart C 18 RP 5 μm column. The flow rate was 1.5 ml/min. The excitation wavelength was 480 nm and the emission wavelength was 580 nm.

Data set [2] is described as follows: in vivo. As to conditions: mouse, iv, 5.7 mg/kg. Here is the method:
Female NMR-I mice (28-32 g, 6-8 weeks) were obtained from the Animal Breeding Institute, Hannover Germany. The same doses (5.7 mg/kg) were injected in each case into the cordal vein of the mice. Each treatment group was composed of 3 animals. After 1, 24 and 72 hours the mice were anaesthetized with CO2. Blood was collected from the mice by puncture of the heart and stored in heparinized Eppendorf vessels. Tissue samples from the mice (liver, heart etc.) were rinsed in 0.9% NaCl solution and stored at -70° C.
In order to detect doxorubicin and its metabolites in the individual organs, the tissue samples (about 200 mg in each case) were homogenized with a micro-dismembrator (Braun Melsungen AG, Germany). Doxorubicin and its metabolites were treated with an extraction solution at pH 3 (16.5% w/v AgNO3 in acetonitrile/water; 6:4, v/v), in order to release the anthracyclines from a complex with DNA and to precipitate the proteins. After addition of an internal standard (epirubicin) and centrifugation, the supernatant was applied directly to the HPLC column.

For data set [3] the following is noted: clinical use; cited from earlier work.

In the data set “in vivo [1]”, `COc1cccc2c1C(=O)c1c(O)c3c(c(O)c1C2=O)C[C@@](O)(C(=O)CO)C[C@@H]3O[C@H]1C[C@H](N)[C@H](O)[C@H](C)O1` [free doxorubicin, doxorubicin] came in with a concentration at 1 h of 500 ng/mL. The fraction remaining (in general, what is left of the initial amount, in per cent) at 1 h in the data set “in vivo [2]” is 23%. Besides, in data set [3], the cardiac toxicity entry was “high cardiac toxicity”.
